In patent US7915383B2, “Method of separating a peptidoglycan recognition protein from a hemolymph Tenebrio molitor larvae” (Yuhan Corporation, priority 2006, dated 2011):

Tests used:
[1] = test system: natural PGN-dependent PO activity in the hemolymph of Tenebrio molitor larvae; test: Inhibition of natural PGN-dependent PO activity by synthetic PGN; format: biochemical
Procedure: (§1) PO activity was assayed according to a Pye-spectrophotometric method using a substrate solution (4-methylcatechol, and 4-hydroxyproline ethylester in HCl). 4-methylcatechol was oxidized to quinone by PO, which was then converted through a non-enzymatic reaction with 4-hydroxyproline ethylester in HCl to 4-(4′-hydroxyl-2′-carbethoxy-1′-pyrroline)-5-methyl-o-benzoquinone, a stable compound having maximum absorbance at 520 nm (see FIG. 2)
Each of 10 μl (1 μg) of a 10% β-1,3-glucan solution, 10 μl. (1 μg) of a 10% S. aureus PGN solution, 10 μl (10 ng) of a 10% M. luteus PGN solution, and 10 μl (1 μg) of a 10% synthetic PGN (for each of the compounds of Formulae 1-4) solution was incubated together with 30 μl (protein 350 μg) of the hemolymph of Tenebrio molitor larvae at 30° C. for 5 minutes. Then, 4 μl of 4-methylcatechol (250 mM), 16 μl of 4-hydroxyproline ethylester (62.5 mM) in HCl, and 5 μl of 1M CaCl2 (10 mM) were added thereto. […] The reaction mixture was incubated at 30° C. and the absorbance of the reaction solution was measured at 520 nm (see FIG. 3).
Meanwhile, PO activity was also measured in the presence of 1 μg of S. aureus PGN and 1 μg of each of the synthetic PGNs.
Furthermore, PO activity was also measured in the presence of 1 μg of S. aureus PGN with an incremental addition of the synthetic PGN of Formula 3 (0.2, 0.4, 0.8, and 1.5 μg).

amidase activity = test: Amidase activity assay with Boc-Phe-Ser-Arg-MCA substrate; format: biochemical, Tenebrio molitor; conditions: S. aureus PGN 1 μg plus synthetic PGN, 40 μM Boc-Phe-Ser-Arg-MCA, 30° C., fluorescence 380/460 nm; FIG. 6
Procedure: 10 μl of a 10% gram-positive S. aureus PGN (final concentration: 1 μg) solution and 10 μl of a 10% synthetic PGN (the compound 35 of Formula 3) solution were incubated in the presence of 40 μM trypsin MCA (t-butyloxycarbonyl-benzyl-L-phenylalanyl-L-seryl-L-arginine-4-methylcoumaryl-7-amide; Boc-Phe-Ser-Arg-MCA) as a substrate at 30° C., and fluorescence was measured at 380 nm (excitation wavelength) and 460 nm (emission wavelength) using a fluorescence spectrophotometer (model UV-160A, Shimadzu).

[2] = test system: PGN-dependent pro-PO cascade in the hemolymph of Tenebrio molitor larvae; test: PO activity assay (Pye-spectrophotometric method): effect of natural or synthetic PGN on PO activation; format: biochemical; conditions: 30 μl hemolymph (protein 350 μg), 1 μg test substance (10 ng M. luteus PGN), 30° C.; FIG. 3
Procedure: as §1
Each of 10 μl (1 μg) of a 10% β-1,3-glucan solution, 10 μl. (1 μg) of a 10% S. aureus PGN solution, 10 μl (10 ng) of a 10% M. luteus PGN solution, and 10 μl (1 μg) of a 10% synthetic PGN (for each of the compounds of Formulae 1-4) solution was incubated together with 30 μl (protein 350 μg) of the hemolymph of Tenebrio molitor larvae at 30° C. for 5 minutes. Then, 4 μl of 4-methylcatechol (250 mM), 16 μl of 4-hydroxyproline ethylester (62.5 mM) in HCl, and 5 μl of 1M CaCl2 (10 mM) were added thereto. Then, 20 mM Tris-HCl (pH 8.0) was added to a final volume of 500 μl. The reaction mixture was incubated at 30° C. and the absorbance of the reaction solution was measured at 520 nm (see FIG. 3).

Q: With “Tetrasaccharide Tetrapeptide [compound 35]” as the substance, how does the “inhibition of PO activity with incremental addition of synthetic PGN” value ([1]; 1 μg of S. aureus PGN plus 0.2, 0.4, 0.8 and 1.5 μg synthetic PGN, FIG. 5) read?
A: Its value is “inhibited in a synthetic PGN concentration-dependent manner”.

Q: And the “inhibition of PGN-dependent PO activity” value ([1]; in the presence of 1 μg of S. aureus PGN and 1 μg of each synthetic PGN, FIG. 4)?
A: The value was “strongest competitive inhibitor”.

Q: What about the “inhibition of amidase activity” value (amidase activity) of the same substance?
A: Its value is “same inhibition pattern as the PO activity”.

Q: With β-1,3-glucan as the substance, how does the “activation of the PGN-dependent pro-PO cascade (PO activity, absorbance at 520 nm)” value [2] read?
A: Its value is “activated”.
